Assay results: paper PMC12040169 (PLOS Biology, 2025)

Assay: in vitro
Conditions: human, hela cells, % viability

| Compound | viability at 28.5 h, 10 µM [%] |
| --- | --- |
| O=C1Nc2ccc(S(=O)(=O)NCCCO)c3cccc1c23 [CBK262033] | 85.9 |
| Clc1ccc(/C=N/Nc2nnn[nH]2)c(Cl)c1 [CBK262034] | 98 |
| O=C(O)CS(=O)(=O)c1ccc(Cl)cc1 [CBK262036G] | 114 |
| N/C(=N\OCC(=O)Nc1cccc([N+](=O)[O-])c1)c1nonc1N [CBK262044] | 90 |
| CN(C)CC(C)(C)CNC=C1C(=O)CC(C)(C)CC1=O [CBK262046] | 99.9 |
| O=C(NN=Cc1ccc(O)cc1)c1cc[n+](Cc2ccccc2)cc1 [CBK262047C] | 87.3 |
| Cc1nn(-c2ccccc2)c(O)c1/C=N/c1ccccc1Sc1c(C)n[nH]c1C [CBK262048] | 89.1 |
| O=C(OCc1ccccc1)Oc1cncc(C(=O)O)c1 [CBK262053] | 91.1 |
| Cc1n[nH]c(C)c1Sc1ccccc1/N=C/c1ccc(C(=O)O)cc1 [CBK262055] | 86.9 |
| O=C(O)CCSc1nc2ccccc2[nH]1 [CBK262056] | 96.2 |
| CC1(C)CC(=O)C(=CNCCC(c2ccccc2)c2ccccc2)C(=O)C1 [CBK262057] | 114 |
| CCSc1nc2ccccc2n1CC(=O)O [CBK262059] | 87.7 |
| O=C(O)CCCNC(=O)c1cncc(O)c1 [CBK262060] | 81.8 |
| Cc1ccc(OCC(O)CN(C)S(=O)(=O)O)c([N+](=O)[O-])c1 (centres unmarked) [CBK262062K] | 85.3 |
| O=C(C[n+]1cccc(C(=O)N/N=C/c2ccc(Br)cc2)c1)c1ccccc1 [CBK262063B] | 90.1 |
| O=C(Oc1ccc(/C=N/Nc2nc(N3CCOCC3)nc(N3CCOCC3)n2)cc1)c1ccccc1 [CBK262064] | 107 |
| c1ccc(C(=NCCN=C(c2ccccc2)c2ccccc2)c2ccccc2)cc1 [CBK262065] | 113 |
| Cc1n[nH]c(C)c1Sc1ccccc1/N=C/c1ccccc1O [CBK262068] | 93 |
| O=C(O)CSc1ncnc2ccccc12 [CBK262069] | 94.4 |
| Cc1cc(C)nc(SCc2c(C)c(C)c(CSc3nc(C)cc(C)n3)c(C)c2C)n1 [CBK262070] | 109 |
| CCC1CCCCN1S(=O)(=O)c1cccc2c(S(=O)(=O)N3CCCCC3CC)cccc12 (centres unmarked) [CBK262073] | 92.8 |

| Compound | viability at 28.5 h, 10 µM [%] |
| --- | --- |
| C/C(=N/O)c1ccc(OCCCOc2ccc(/C(C)=N/O)cc2)cc1 [CBK262075] | 95.2 |
| O=C(NO)c1nc[nH]c1C(=O)NO [CBK262077] | 97.7 |
| O=C1CC(N2CCN(C/C=C/c3ccccc3)CC2)C(=O)N1CCc1ccccc1 (centres unmarked) [CBK262082] | 83.6 |
| CC(NC(=O)COc1ccc(Br)cc1)C(=O)O (centres unmarked) [CBK262083] | 87.4 |
| Cn1ccnc1C(O)(c1ccccc1)c1nccn1C [CBK262084] | 97.6 |
| O=C(Nc1ccc(Cc2ccc(NC(=O)c3ccc(Br)cc3)c(O)c2)cc1O)c1ccc(Br)cc1 [CBK262086] | 102 |
| CCC(Oc1ccccc1)C(=O)Nc1sc2c(c1C#N)CCCC2 (centres unmarked) [CBK262091] | 87.5 |
| O=C(COc1ccc([N+](=O)[O-])cc1)N/N=C/c1cc(Br)cc(Br)c1O [CBK262094] | 98.3 |
| COc1cccc(NC(=O)C(=O)NCCCO)c1 [CBK262095] | 89.6 |
| COc1cccc(/C=N/NC(=O)C(=O)NCc2ccccn2)c1O [CBK262097] | 93.5 |
| O=C(Nc1cccnc1)c1cc(S(=O)(=O)N2CCOCC2)ccc1Cl [CBK262099] | 84.7 |
| O=C(NN1C(=O)c2ccccc2C1=O)c1cc(C(=O)NN2C(=O)c3ccccc3C2=O)cc(N2C(=O)c3ccccc3C2=O)c1 [CBK262100] | 88.2 |
| Cc1ccc(Nc2nc(N/N=C/c3cccc4ccccc34)nc(N3CCC(Cc4ccccc4)CC3)n2)cc1 [CBK262101] | 94.7 |
| O=C(c1ccco1)N1CCN(S(=O)(=O)c2ccc3c(c2)C(=NO)c2cc(S(=O)(=O)N4CCN(C(=O)c5ccco5)CC4)ccc2-3)CC1 [CBK262103] | 104 |
| CC(=O)Nc1ccc(N2C(=O)c3ccc(S(=O)(=O)c4ccc5c(c4)C(=O)N(c4ccc(NC(C)=O)cc4)C5=O)cc3C2=O)cc1 [CBK262105] | 77.8 |
| O=C(CCn1c2ccccc2c2ccccc21)NNC(=S)Nc1ccccc1 [CBK262106] | 94.6 |
| CC(=O)Nc1ccc(S(=O)(=O)N2CCCC(CO)C2)cc1 (centres unmarked) [CBK262108] | 98.6 |
| NS(=O)(=O)c1ccc(NC(=O)/C(=C/c2ccc(Br)cc2)NC(=O)c2ccccc2)cc1 [CBK262109] | 105 |
| COc1cc(/C=N/NC(=O)c2ccccn2)ccc1OC(=O)c1cccc2ccccc12 [CBK262110] | 94.4 |
| CCOc1ccc(/N=N\c2ccc(O)c(/C=N\Nc3ccc([N+](=O)[O-])cc3)c2)cc1 [CBK262111] | 97.7 |
| O=C(Oc1cccc(/C=N/NC(=O)c2ccccn2)c1)c1cccc(Br)c1 [CBK262115] | 90.5 |

| Compound | viability at 28.5 h, 10 µM [%] |
| --- | --- |
| CN(C)CCCNC(=O)c1ccc([N+](=O)[O-])o1 [CBK262118] | 92.8 |
| COc1ccc(/C=N/NC(=O)Cn2nnnc2N)cc1 [CBK262122] | 84.9 |
| CCc1cc2c(=O)c(-c3nc4ccccc4n3C)c(C)oc2c(CN2CCOCC2)c1O [CBK262124] | 94.1 |
| Nc1nnc(CC(=O)N/N=C/c2cc(Br)c(O)c(Br)c2O)s1 [CBK262131] | 96 |
| O=C(NCc1ccco1)c1ccc2c(c1)OCO2 [CBK262133] | 94.4 |
| NC(=O)CCN(CCC(N)=O)S(=O)(=O)c1ccc(N)cc1 [CBK262134] | 118 |
| O=C(O)c1cc(NC(=O)c2ccccc2[N+](=O)[O-])cc(C(=O)O)c1 [CBK262135] | 81.1 |
| C(=N\c1ccc(Cc2ccncc2)cc1)/c1ccc(/C=N/c2ccc(Cc3ccncc3)cc2)cc1 [CBK262137] | 97 |
| CCOC(=O)Nc1ccc(S(=O)(=O)Nn2cnnc2)cc1 [CBK262138] | 105 |
| O=C(O)c1cc(-c2cccnc2)nc2ccccc12 [CBK262141K] | 103 |
| COc1ccc(C(O)Cc2nc3ccccc3n2Cc2ccc(Cl)cc2)cc1 (centres unmarked) [CBK262143] | 86.2 |
| O=C(N/N=C/c1ccc(O)c(I)c1)c1ccncc1 [CBK262144] | 86.2 |
| O=C(N/N=C/c1ccc(OC(=O)c2ccc([N+](=O)[O-])cc2)cc1)c1cccnc1 [CBK262146] | 101 |
| O=C(O)c1cc(-c2ccccn2)nc2ccccc12 [CBK262147K] | 108 |
| COc1ccccc1NC(=O)C(=O)N/N=C/c1ccc(C(=O)O)cc1 [CBK262148] | 93.8 |
| Cc1cc(C=O)c(O)c(/C=N/CC/N=C/c2cc(C)cc(C=O)c2O)c1 [CBK262149] | 95.6 |
| O=C(Nc1ccncc1)OCCNC(=O)c1ccncc1 [CBK262150] | 102 |
| O=C(Cc1ccc([N+](=O)[O-])cc1)N/N=C/c1ccc(O)cc1 [CBK262152] | 84.5 |
| CN(CCN(C)/N=C/c1cccc2ccccc12)/N=C/c1cccc2ccccc12 [CBK262153] | 107 |
| COc1ccc(-c2ccc(/C=N/NC(=O)c3ccncc3)o2)c([N+](=O)[O-])c1 [CBK262156] | 97.3 |
| c1ccc2c(CNCc3ccc4c(c3)OCO4)c[nH]c2c1 [CBK262159] | 89.5 |

| Compound | viability at 28.5 h, 10 µM [%] |
| --- | --- |
| NC(=O)c1c(NC(=O)COc2ccc(Cl)cc2)sc2c1CCC2 [CBK262163] | 91 |
| O=C(O)CN1C(=O)c2ccc(C(=O)c3ccc4c(c3)C(=O)N(CC(=O)O)C4=O)cc2C1=O [CBK262166] | 82.3 |
| OCCn1c(-c2ccc(Br)cc2)cn2c3ccccc3nc12 [CBK262167] | 95.2 |
| COc1ccccc1CNCc1ccccc1OC [CBK262168] | 106 |
| COc1cc(/C=N/NC(=O)c2cccc([N+](=O)[O-])c2)cc(OC)c1O [CBK262172] | 83.1 |
| Cc1cccnc1NC(=O)COc1ccc(Cl)cc1 [CBK262175] | 106 |
| O=C(N/N=C/c1cc2c(cc1Cl)OCO2)C(O)c1ccccc1 (centres unmarked) [CBK262177] | 112 |
| O=C(N/N=C/c1ccc(OC(=O)c2cccs2)cc1)c1ccccn1 [CBK262178] | 107 |
| c1ccc(-c2n[nH]c(-c3ccncc3)c2-c2nc3ccccc3[nH]2)cc1 [CBK262180] | 88 |
| COC(=O)Nc1ccc(S(=O)(=O)Oc2ccc(C)cc2-n2nc3ccccc3n2)cc1 [CBK262183] | 89.3 |
| O=C(N/N=C/c1ccc(O)cc1)c1c[nH]c2ccccc12 [CBK262193] | 91.4 |
| COc1cc(CNC2CCCCCC2)c([N+](=O)[O-])cc1OC [CBK262194] | 96.4 |
| O=C1c2ccc(Oc3ccc(Oc4ccc5c(c4)C(=O)N(c4cccnc4)C5=O)cc3)cc2C(=O)N1c1cccnc1 [CBK262195] | 95.7 |
| COc1c(O)ccc(/C=N/NC(=O)c2cccnc2)c1[N+](=O)[O-] [CBK262197] | 112 |
| O=[N+]([O-])c1cc(/C=N/Nc2nnn[nH]2)ccc1N1CCOCC1 [CBK262199] | 99.7 |
| CC(C)(C)c1cc(C(=O)NCC(=O)NCC(=O)O)cc(C(C)(C)C)c1 [CBK262200] | 96 |
| Cc1ccc(S(=O)(=O)c2cccc(S(=O)(=O)N3CCCCC3)c2)cc1S(=O)(=O)N1CCCCC1 [CBK262207] | 105 |
| Cc1ccc(S(=O)(=O)NCC(Oc2ccc([N+](=O)[O-])cc2)c2ccccc2)cc1 (centres unmarked) [CBK262208] | 101 |
| O=C(CC(Nc1ccc2ccccc2c1)c1ccncc1)c1ccc(Br)cc1 (centres unmarked) [CBK262209] | 98.7 |
| O=C(COc1ccc(-c2ccccc2)cc1)N/N=C/c1ccncc1 [CBK262210] | 93.2 |
| O=C(COc1ccc(I)cc1)N/N=C/c1cccc([N+](=O)[O-])c1 [CBK262211] | 95.2 |

Same assay, conditions: human, hela cells, % viability, bulk resorufin, single well

| Compound | viability at 28.5 h, 10 µM [%] |
| --- | --- |
| Cc1ccc(C=C2C(=O)NC(=O)NC2=O)cc1[N+](=O)[O-] [CBK262102] | 97.9 |
| O=C(O)c1cc(N2C(=O)c3cccc4c([N+](=O)[O-])ccc(c34)C2=O)cc(N2C(=O)c3cccc4c([N+](=O)[O-])ccc(c34)C2=O)c1 [CBK262119] | 91.8 |
